Test results taken from ChEMBL document CHEMBL3351419, “Orally bioavailable 6-chloro-7-methoxy-4(1H)-quinolones efficacious against multiple stages of Plasmodium” (J Med Chem, 2014).
In brackets after ≈: the same amount, converted by molar mass.

Assays:
Liver microsome [1] = assay: (§1) Intrinsic clearance in human liver microsomes at 1 uM by LC-MS analysis; assay type: ADME; settings: microsomes, 1 µM
Plasmodium berghei [2] = assay: Antimalarial activity against Plasmodium berghei ANKA expressing GFP infected in Balb/c mouse assessed as inhibition of parasitemia at 50 mg/kg, po qd administered as single dose on day 3 to 5 of exposure measured on day 6 post exposure by in vivo thomson test relative to control; assay type: functional
Plasmodium berghei [3] = assay: Antimalarial activity against Plasmodium berghei ANKA expressing GFP infected in Balb/c mouse assessed as mouse survival at 50 mg/kg, po qd administered as single dose on day 3 to 5 of exposure measured on day 6 post exposure by in vivo thomson test relative to control; assay type: functional
[4] = Cytotoxicity index, ratio of EC50 for mouse J774 cells to EC50 for multi-drug-resistant Plasmodium falciparum TM90-C2B infected in human type A+ erythrocytes; assay type: toxicity, cell-based; settings: read-out: Ratio EC50
[5] = Resistance index, ratio of EC50 for multi-drug-resistant Plasmodium falciparum TM90-C2B infected in human type A+ erythrocytes to EC50 for multi-drug-resistant Plasmodium falciparum W2 infected in human type A+ erythrocytes; assay type: functional
J774 = assay: Cytotoxicity against mouse J774 cells after 72 hrs by CellTiter 96 assay; assay type: cell-based; settings: J774, 72 h
Plasmodium falciparum [6] = assay: Antimalarial activity against multi-drug-resistant Plasmodium falciparum TM90-C2B infected in human type A+ erythrocytes assessed as growth inhibition after 72 hrs by SYBR Green I assay; assay type: functional, organism-based
Plasmodium falciparum [7] = assay: Antimalarial activity against multi-drug-resistant Plasmodium falciparum W2 infected in human type A+ erythrocytes assessed as growth inhibition after 72 hrs by SYBR Green I assay; assay type: functional, organism-based; settings: W2, 72 h
[8] = as §1; assay type: ADME; settings: liver microsomes, read-out: CLH
Plasmodium berghei [9] = assay: Antimalarial activity against Plasmodium berghei ANKA expressing GFP infected in Balb/c mouse assessed as mouse survival at 10 mg/kg, po qd administered as single dose on day 3 to 5 of exposure measured on day 6 post exposure by in vivo thomson test relative to control; assay type: functional
Plasmodium berghei [10] = assay: Antimalarial activity against Plasmodium berghei ANKA expressing GFP infected in Balb/c mouse assessed as mouse cured from disease at 50 mg/kg, po qd administered as single dose on day 3 to 5 of exposure measured on day 30 post exposure by in vivo thomson test relative to control; assay type: functional
Plasmodium berghei [11] = assay: Antimalarial activity against Plasmodium berghei ANKA expressing GFP infected in Balb/c mouse assessed as inhibition of parasitemia at 10 mg/kg, po qd administered as single dose on day 3 to 5 of exposure measured on day 6 post exposure by in vivo thomson test relative to control; assay type: functional
Plasmodium berghei [12] = assay: Antimalarial activity against Plasmodium berghei ANKA expressing GFP infected in Balb/c mouse assessed as mouse cured from disease at 10 mg/kg, po qd administered as single dose on day 3 to 5 of exposure measured on day 30 post exposure by in vivo thomson test relative to control; assay type: functional
in vitro = settings: pampa, pH 7.4
Description: (§2) Effective permeability of the compound at pH 7.4 by PAMPA

[13] = octanol/water, pH 7.4
[14] = Aqueous solubility of the compound at pH 7.4; assay type: physicochemical; settings: buffer
Liver microsome [15] = assay: Half life in human liver microsomes at 1 uM by LC-MS analysis; assay type: ADME
Plasmodium berghei [16] = assay: Antimalarial activity against Plasmodium berghei ANKA expressing GFP infected in Balb/c mouse assessed as mouse survival at 3 mg/kg, po qd administered as single dose on day 3 to 5 of exposure measured on day 6 post exposure by in vivo thomson test relative to control; assay type: functional
Plasmodium berghei [17] = assay: Antimalarial activity against Plasmodium berghei ANKA expressing GFP infected in Balb/c mouse assessed as mouse cured from disease at 3 mg/kg, po qd administered as single dose on day 3 to 5 of exposure measured on day 30 post exposure by in vivo thomson test relative to control; assay type: functional
Plasmodium berghei [18] = assay: Antimalarial activity against Plasmodium berghei ANKA expressing GFP infected in Balb/c mouse assessed as inhibition of parasitemia at 3 mg/kg, po qd administered as single dose on day 3 to 5 of exposure measured on day 6 post exposure by in vivo thomson test relative to control; assay type: functional
[19] = Plasma clearance in Sprague-Dawley rat at 0.15 mg/kg, iv; assay type: ADME, organism-based; design: dose 0.15 mg/kg, route intravenous
Plasmodium berghei [20] = assay: Antimalarial activity against Plasmodium berghei ANKA expressing GFP infected in Balb/c mouse assessed as mouse survival at 1 mg/kg, po qd administered as single dose on day 3 to 5 of exposure measured on day 6 post exposure by in vivo thomson test relative to control; assay type: functional
Rattus norvegicus = assay: Half life in Sprague-Dawley rat at 0.15 mg/kg, iv; assay type: ADME, organism-based; design: dose 0.15 mg/kg, route intravenous; settings: in vivo
[21] = Apparent oral bioavailability in Sprague-Dawley rat at 10 mg/kg; assay type: ADME, organism-based; settings: in vivo
Plasmodium berghei [22] = assay: Antimalarial activity against Plasmodium berghei ANKA expressing GFP infected in Balb/c mouse assessed as inhibition of parasitemia at 1 mg/kg, po qd administered as single dose on day 3 to 5 of exposure measured on day 6 post exposure by in vivo thomson test relative to control; assay type: functional
[23] = Volume of distribution in Sprague-Dawley rat at 0.15 mg/kg, iv; assay type: ADME, organism-based; design: dose 0.15 mg/kg, route intravenous; settings: in vivo
Plasmodium berghei [24] = assay: Antimalarial activity against Plasmodium berghei ANKA expressing GFP infected in Balb/c mouse assessed as mouse survival at 0.3 mg/kg, po qd administered as single dose on day 3 to 5 of exposure measured on day 6 post exposure by in vivo thomson test relative to control; assay type: functional
Plasmodium berghei [25] = assay: Antimalarial activity against Plasmodium berghei ANKA expressing GFP infected in Balb/c mouse assessed as inhibition of parasitemia at 0.3 mg/kg, po qd administered as single dose on day 3 to 5 of exposure measured on day 6 post exposure by in vivo thomson test relative to control; assay type: functional
[26] = pampa, pH 7.4
Description: as §2

Liver = assay: Half life in mouse liver microsomes at 1 uM by LC-MS analysis; assay type: ADME
Plasmodium berghei [27] = assay: Antimalarial activity against Plasmodium berghei ANKA expressing GFP infected in Balb/c mouse assessed as mouse survival at 30 mg/kg, po qd administered as single dose on day 3 to 5 of exposure measured on day 6 post exposure by in vivo thomson test relative to control; assay type: functional

Row | SMILES | mouse survival time at 50 mg/kg (Plasmodium berghei [3]) [days] | selectivity ratio [4] | Ratio EC50 [5] | EC50 (J774) [nM] | EC50 (Plasmodium falciparum [6]) [nM] | EC50 (Plasmodium falciparum [7]) [nM] | survival time at 10 mg/kg (Plasmodium berghei [9]) [days] | inhibition in vivo at 10 mg/kg (Plasmodium berghei [11]) [%] | Activity (Plasmodium berghei [12]) [%] | logD [13] | solubility kinetic [14] [µM] | survival time at 3 mg/kg (Plasmodium berghei [16]) [days] | Activity (Plasmodium berghei [17]) [%] | inhibition in vivo at 3 mg/kg (Plasmodium berghei [18]) [%] | also measured
1 | CCc1c(C)[nH]c2cc(OC)c(Cl)cc2c1=O | – | – | – | – | – | – | – | – | – | – | – | – | – | – | CLint_mic (Liver microsome [1]): 56 µL/min/mg
2 | COc1cc2[nH]c(C)c(-c3ccccc3)c(=O)c2cc1Cl | 0 | > 2170 | 0.59 | > 33400 | – | – | – | – | – | – | – | – | – | – | inhibition in vivo at 50 mg/kg (Plasmodium berghei [2]): < 1%; CLint_mic (Liver microsome [1]): 17 µL/min/mg
3 | COc1cc2[nH]c(C)c(-c3cccnc3)c(=O)c2cc1Cl | – | > 277 | 0.16 | > 33300 | 120 | 748 | – | – | – | – | – | – | – | – | microsomal CLint at 1 µM [8]: 15 µL/min/mg
4 | COc1cc2[nH]c(C)c(-c3ccncc3)c(=O)c2cc1Cl | – | > 152 | 1.71 | > 33300 | 219 | 128 | – | – | – | – | – | – | – | – | CLint_mic (Liver microsome [1]): 15 µL/min/mg
5 | COc1cc2[nH]c(C)c(-c3ccc(Cl)cc3C)c(=O)c2cc1Cl | 5 | – | – | > 28700 | – | 14.2 | 5 | 95 | 0 | 2.9 | < 2 | – | – | – | Activity (Plasmodium berghei [10]): 0%; inhibition in vivo at 50 mg/kg (Plasmodium berghei [2]): 71%; Papp (in vitro): 369 ×10⁻⁶ cm/s
6 | COc1cc2[nH]c(C)c(-c3ccc(C(F)(F)F)cc3C)c(=O)c2cc1Cl | 0 | > 45300 | 0.29 | > 26200 | 0.578 | 2.02 | 6 | 80 | 0 | 2.7 | < 2 | 23 | 100 | 84 | t1/2 (Liver microsome [15]): 3.93 h; Activity (Plasmodium berghei [10]): 0%
7 | COc1cc2[nH]c(C)c(-c3ccc(Oc4ccc(OC(F)(F)F)cc4)cc3F)c(=O)c2cc1Cl | 23 | > 1330 | 4.07 | > 20200 | 15.2 | 3.74 | 23 | 99.5 | 100 | 3.4 | < 2 | 23 | 100 | 99.3 | clearance [19]: 0.3 mL/min/kg; survival at 1 mg/kg (Plasmodium berghei [20]): 23 days; t1/2 (Rattus norvegicus): 32 h; Activity (Plasmodium berghei [10]): 100%; inhibition in vivo at 50 mg/kg (Plasmodium berghei [2]): 99.2%; bioavailability [21]: 14%; inhibition in vivo at 1 mg/kg (Plasmodium berghei [22]): 99.3%; Vd [23]: 0.7 L/kg
8 | COc1cc2[nH]c(C)c(-c3ccc(-c4ccc(C(F)(F)F)cc4F)nc3)c(=O)c2cc1Cl | – | > 20400 | 1.76 | > 21600 | 1.06 | 0.602 | 23 | 95.2 | 100 | 3.7 | 6 to 12 (≈ 2.78 to 5.55 µg/mL) | 23 | 100 | 96.3 | survival at 1 mg/kg (Plasmodium berghei [20]): 23 days; survival at 0.3 mg/kg (Plasmodium berghei [24]): 23 days; inhibition in vivo at 0.3 mg/kg (Plasmodium berghei [25]): 94.3%; inhibition in vivo at 1 mg/kg (Plasmodium berghei [22]): 94.5%; Peff [26]: 1070 ×10⁻⁶ cm/s
9 | COc1cc2[nH]c(C)c(-c3ccc(-c4ccc(OC(F)(F)F)cc4)nc3)c(=O)c2cc1Cl | – | > 10700 | 2.95 | > 21700 | 2.03 | 0.686 | 23 | 97.3 | 100 | 3.7 | 6 to 12 (≈ 2.77 to 5.53 µg/mL) | 23 | 80 | 97.3 | survival at 1 mg/kg (Plasmodium berghei [20]): 23 days; survival at 0.3 mg/kg (Plasmodium berghei [24]): 23 days; inhibition in vivo at 0.3 mg/kg (Plasmodium berghei [25]): 93.9%; inhibition in vivo at 1 mg/kg (Plasmodium berghei [22]): 95.8%
10 | CCCCCCCc1c(C)nc2cc(OC)ccc2c1O | – | – | – | – | – | – | – | – | – | – | – | – | – | – | t1/2 (Liver): 7.9 min
11 | CCN(CC)Cc1cc(Nc2ccnc3cc(Cl)ccc23)ccc1O [AMODIAQUINE] | – | – | – | – | – | – | – | – | – | – | – | – | – | – | survival at 30 mg/kg (Plasmodium berghei [27]): 23 days
